Data: ChEMBL document CHEMBL1129066, “Novel terphenyls as selective cyclooxygenase-2 inhibitors and orally active anti-inflammatory agents” (J Med Chem, 1996)

Columns and labels:
[1] = target: Prostaglandin G/H synthase 1 (Homo sapiens, UniProt P23219)
Rattus norvegicus [2] = species on record: Rattus norvegicus; assay: animal or person; assay type: functional
Rattus norvegicus [3] = species on record: Rattus norvegicus; assay: animal or person; assay type: functional; remark: listed apart in the source
Rattus norvegicus [4] = species on record: Rattus norvegicus; assay: animal or person; assay type: functional; remark: listed apart in the source
Rattus norvegicus [5] = species on record: Rattus norvegicus; assay: animal or person; assay type: functional; remark: listed apart in the source

Chain of Prostaglandin G/H synthase 1 (P23219 whole entry): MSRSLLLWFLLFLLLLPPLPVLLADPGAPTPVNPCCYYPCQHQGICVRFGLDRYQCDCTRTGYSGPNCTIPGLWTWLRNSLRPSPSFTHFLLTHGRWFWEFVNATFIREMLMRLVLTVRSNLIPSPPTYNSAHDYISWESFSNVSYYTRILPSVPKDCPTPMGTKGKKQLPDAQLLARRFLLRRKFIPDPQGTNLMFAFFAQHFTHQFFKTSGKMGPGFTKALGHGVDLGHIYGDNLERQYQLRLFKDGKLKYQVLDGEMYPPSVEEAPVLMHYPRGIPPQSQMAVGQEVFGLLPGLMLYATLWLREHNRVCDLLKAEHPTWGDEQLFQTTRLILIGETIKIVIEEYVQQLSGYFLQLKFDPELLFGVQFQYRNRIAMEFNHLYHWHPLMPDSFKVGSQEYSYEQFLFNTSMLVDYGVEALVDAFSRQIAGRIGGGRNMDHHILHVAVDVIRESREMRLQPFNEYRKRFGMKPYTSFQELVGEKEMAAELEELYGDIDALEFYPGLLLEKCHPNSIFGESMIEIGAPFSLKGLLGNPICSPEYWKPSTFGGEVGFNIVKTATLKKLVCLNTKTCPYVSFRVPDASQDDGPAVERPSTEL

Row | IC50 [1] | SMILES | other results
1 | > 100 µM | CS(=O)(=O)c1ccc(-c2cc(F)c(F)cc2-c2ccc3c(c2)OCCO3)cc1 | –
2 | > 100 µM | COc1c(Cl)cc(-c2cc(F)c(F)cc2-c2ccc(S(C)(=O)=O)cc2)cc1Cl | –
3 | > 100 µM | CS(=O)(=O)c1ccc(-c2cc(Cl)c(Cl)cc2-c2ccc(F)cc2)cc1 | –

The next lines start with the molecule.

Row | SMILES | IC50 [1] | other results
4 | CS(=O)(=O)c1ccc(-c2cc3ccccc3cc2-c2ccc(F)cc2)cc1 | > 100 µM | –
5 | NS(=O)(=O)c1ccc(-c2cc3c(cc2-c2ccc(F)cc2)OCO3)cc1 | – | inhibition in vivo at 2 mg/kg (Rattus norvegicus [2]): 26%
6 | CS(=O)(=O)c1ccc(-c2c(F)c(F)c(F)c(F)c2-c2ccc(F)cc2)cc1 | > 100 µM | –
7 | CS(=O)(=O)c1ccc(-c2cc3c(cc2-c2ccc(F)cc2)OCO3)cc1 | – | inhibition in vivo at 2 mg/kg (Rattus norvegicus [2]): 0%
8 | NS(=O)(=O)c1ccc(-c2cc(F)c(F)cc2-c2ccc(F)c(Cl)c2)cc1 | – | ED50 (Rattus norvegicus [3]): 38.7 mg/kg; ED50 (Rattus norvegicus [4]): 0.05 mg/kg
9 | NS(=O)(=O)c1ccc(-c2ccccc2-c2ccc(F)cc2)cc1 | – | ED50 (Rattus norvegicus [5]): > 50 mg/kg; ED50 (Rattus norvegicus [4]): 1.5 mg/kg
10 | CS(=O)(=O)c1ccc(-c2nccnc2-c2ccc(F)cc2)cc1 | > 100 µM | –
